ChEMBL document CHEMBL1150887, “Isolation, identification, and antioxidant activity of three stilbene glucosides newly extracted from vitis vinifera cell cultures” (J Nat Prod, 1998)

What was measured:
[1] = tested on: Radical scavenging activity; assay: Antioxidant activity assessed as DPPH radical scavenging activity; assay type: functional
[2] = Antioxidant activity against cupric ion-induced lipid peroxidation in human LDL by TBA assay; assay type: functional

SMILES | IC50 [1] | IC50 [2]
OC[C@H]1O[C@@H](Oc2cc(O)cc(/C=C\c3ccc(O)cc3)c2)[C@H](O)[C@@H](O)[C@@H]1O [Z-PICEID] | 142 µM | 16.8 µM
Oc1cc(O)cc(/C=C/c2ccc(O)c(O)c2)c1 [PICEATANNOL] | 28 µM | 1.8 µM
OC[C@H]1O[C@@H](Oc2ccc(/C=C\c3cc(O)cc(O)c3)cc2O)[C@H](O)[C@@H](O)[C@@H]1O [Z-RESVERATROLOSIDE] | > 1000 µM | 150 µM
OC[C@H]1O[C@@H](Oc2cc(O)cc(/C=C\c3ccc(O)c(O)c3)c2)[C@H](O)[C@@H](O)[C@@H]1O [Z-ASTRINGIN] | 29 µM | 2.5 µM
Oc1ccc(/C=C\c2cc(O)cc(O)c2)cc1 [CIS-RESVERATROL] | 95 µM | 18 µM
Cc1c(C)c2c(c(C)c1O)CCC(C)(C(=O)O)O2 (stereo not given) [TROLOX] | 10.1 µM | 4.7 µM
OC[C@H]1O[C@@H](Oc2cc(O)cc(/C=C/c3ccc(O)c(O)c3)c2)[C@H](O)[C@@H](O)[C@@H]1O | 30.2 µM | 3 µM
OC[C@H]1O[C@@H](Oc2cc(O)cc(/C=C/c3ccc(O)cc3)c2)[C@H](O)[C@@H](O)[C@@H]1O [PICEID] | 198 µM | 19.1 µM
Oc1ccc(/C=C/c2cc(O)cc(O)c2)cc1 [RESVERATROL] | 72 µM | 2.4 µM
OC[C@H]1O[C@@H](Oc2ccc(/C=C/c3cc(O)cc(O)c3)cc2O)[C@H](O)[C@@H](O)[C@@H]1O [E-RESVERATROLOSIDE] | 1000 µM | 100 µM
